From US8481586B2, “Pyrrolo[2,3-a] carbazoles and use thereof as PIM kinase inhibitors” (Centre National de la Recherche Scientifique, priority 2008, dated 2013)

Key:
[1] = molecular target: PIM-3 (Homo sapiens (Human), UniProt Q86V86); experiment: inhibition test on kinase PIM-3 (residual activity, IC50); type: biochemical; details: product at 10 μmol/L; Table 2; N.I. = not inhibitory; read-out: Percentage of residual activity PIM-3
From the text: (§1) MKK1, ERK 1, ERK 2, JNK1, JNK2, JNK3, p38a MAPK, p38b MAPK, p38g MAPK, p38s MAPK, ERK8, RSK1, RSK2, PDK1, PKBa, PKBb, SGK1, S6K1, PKA, ROCK2, PRK2, PKCa, PKC zeta, PKD1, MSK1, MNK1, MNK2, MAPKAP-K2, MAPKAP-K3, PRAK, CAMKKa, CAMKKb, CAMK1, SmMLCK, PHK, CHK1, CHK2, GSK3b, CDK2/cyclin A, PLK1, PLK1 (Okadaic acid), Aurora B, Aurora C, AMPK, MARK3, BRSK2, MELK, CK1, CK2, NEK2a, NEK6, NEK7, IKKb, PIM-1, PIM-2, PIM-3, SRPK1, MST2, EF2K, HIPK2, HIPK3, PAK-4, PAK5, PAK6, Src, Lck, CSK.
(§2) The results in terms of residual activity of the kinases after being placed in contact with the compounds of Examples 2, 3 and 5, at a concentration of 10 μM (10 μmol/L), are shown in Table 1 below.
(§3) The higher the residual activity of the kinase tested, the lower the inhibitory activity of the test compounds on the tested kinase.
(§4) The compounds according to the invention were then tested on the kinases PIM-1, PIM-2 and PIM-3.
(§5) The results in terms of percentage of residual activity after placing the compounds according to the invention in contact with each of the kinases PIM-1, PIM-2 and PIM-3 are given in Table 2 below.
(§6) The higher the residual activity, the lower the inhibitory activity of the test compounds.
(§7) The mean inhibitory concentrations (IC50) of certain preferred compounds of the invention were determined in the following manner: the IC50 values were measured after performing the inhibition tests on the kinases PIM-1, PIM-2 and PIM-3 at ten different concentrations for each test compound, and the IC50 value was determined from the dose-inhibition curves obtained.

[2] = molecular target: PIM-2 (Homo sapiens (Human), UniProt Q9P1W9); experiment: inhibition test on kinase PIM-2 (residual activity, IC50); type: biochemical; details: product at 10 μmol/L, Table 2, N.I. = not inhibitory; for remaining activity at 10 µM: read-out: Percentage of residual activity PIM-2
From the text: as §1, §2, §3, §4, §5, §6, §7

[3] = molecular target: PIM-1 (Homo sapiens (Human), UniProt P11309); experiment: inhibition test on kinase PIM-1 (residual activity, IC50); type: biochemical; details: product at 10 μmol/L, Table 2, N.I. = not inhibitory; for remaining activity at 10 µM: read-out: Percentage of residual activity PIM-1
From the text: as §1, §2, §3, §4, §5, §6, §7

PIM-2, sequence (Q9P1W9 whole entry, species assumed): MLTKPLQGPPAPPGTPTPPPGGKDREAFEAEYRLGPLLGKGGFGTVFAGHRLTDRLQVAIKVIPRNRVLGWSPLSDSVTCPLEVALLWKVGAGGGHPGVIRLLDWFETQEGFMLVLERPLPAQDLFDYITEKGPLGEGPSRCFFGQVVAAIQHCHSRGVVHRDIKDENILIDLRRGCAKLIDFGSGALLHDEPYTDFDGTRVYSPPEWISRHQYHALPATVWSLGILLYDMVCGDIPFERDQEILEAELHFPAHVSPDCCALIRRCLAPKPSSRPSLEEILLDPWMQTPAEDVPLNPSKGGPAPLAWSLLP
PIM-1, sequence (P11309 whole entry, species assumed): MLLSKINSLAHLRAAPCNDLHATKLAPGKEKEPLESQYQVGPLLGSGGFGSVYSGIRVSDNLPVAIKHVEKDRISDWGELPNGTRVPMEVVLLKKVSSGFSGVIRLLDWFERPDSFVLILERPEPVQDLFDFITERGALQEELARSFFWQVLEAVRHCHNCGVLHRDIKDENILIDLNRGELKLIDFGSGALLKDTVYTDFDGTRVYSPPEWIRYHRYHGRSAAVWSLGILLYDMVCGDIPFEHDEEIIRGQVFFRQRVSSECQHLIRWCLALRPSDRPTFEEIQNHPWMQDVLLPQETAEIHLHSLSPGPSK

| SMILES | remaining activity at 10 µM [1] [%] | melting point [°C] | remaining activity at 10 µM [2] [%] | remaining activity at 10 µM [3] [%] | Percentage of residual activity PIM-2 [2] | Percentage of residual activity PIM-1 [3] |
| --- | --- | --- | --- | --- | --- | --- |
| O=Cc1c[nH]c2c1ccc1c3ccc(Br)cc3[nH]c12 [Example 43, 8-bromo-1,10-dihydropyrrolo[2,3-a]carbazole-3-carbaldehyde] | 15 | > 250 | 39 | 44 | – | – |
| N#Cc1ccc2[nH]c3c(ccc4c(C=O)c[nH]c43)c2c1 [Example 49, 3-formyl-1,10-dihydropyrrolo[2,3-a]carbazole-7-carbonitrile] | 14 | – | – | 92 | N.I. | – |
| CCN(CC)CCc1c[nH]c2c1ccc1c3ccccc3[nH]c12 [Example 11, 2-(1,10-dihydropyrrolo[2,3-a]carbazol-3-yl)-N,N-diethylethanamine] | 25 | – | 78 | 39 | – | – |
| Brc1ccc2c(c1)[nH]c1c2ccc2cc[nH]c21 [Example 25, 8-bromo-1,10-dihydropyrrolo[2,3-a]carbazole] | 15 | – | 93 | 74 | – | – |
| CCc1cccc2c1[nH]c1c2ccc2cc[nH]c21 [Example 33, 9-ethyl-1,10-dihydropyrrolo[2,3-a]carbazole] | 23 | – | 96 | 28 | – | – |
| O=Cc1c[nH]c2c1ccc1c3cccc(F)c3[nH]c12 [Example 47, 9-Fluoro-1,10-dihydropyrrolo[2,3-a]carbazole-3-carbaldehyde] | 3 | – | 11 | 5 | – | – |
| Clc1cc(Cl)c2c(c1)[nH]c1c2ccc2cc[nH]c21 [Example 30, 6,8-dichloro-1,10-dihydropyrrolo[2,3-a]carbazole] | 14 | – | 36 | 10 | – | – |
| O=Cc1c[nH]c2c1ccc1c3cc(-c4ccc(OC(F)(F)F)cc4)ccc3[nH]c12 [Example 42, 7-(4-trifluoromethoxyphenyl)-1,10-dihydropyrrolo[2,3-a]carbazole-3-carbaldehyde] | 31 | – | 70 | 29 | – | – |
| FC(F)(F)c1cccc2c1[nH]c1c2ccc2cc[nH]c21 [Example 34, 9-(trifluoromethyl)-1,10-dihydropyrrolo[2,3-a]carbazole] | 45 | – | – | 85 | N.I. | – |
| CCc1cccc2c1[nH]c1c2ccc2c(C=O)c[nH]c21 [Example 51, 9-ethyl-1,10-dihydropyrrolo[2,3-a]carbazole-3-carbaldehyde] | 10 | – | 14 | 1 | – | – |
| Fc1cccc2c1[nH]c1c2ccc2cc[nH]c21 [Example 29, 9-fluoro-1,10-dihydropyrrolo[2,3-a]carbazole] | 43 | – | – | – | N.I. | N.I. |
